Data as given in patent publication US20180194762A1 (Pharmacyclics LLC, priority 2017, published 2018).

Tests used:
Format in all cases: biochemical
TEC = target: T1, TEC (Homo sapiens, UniProt P42680); experiment: Inhibition of a panel of kinases (in vitro HotSpot kinase assay, 33P-ATP, 1 μM ATP); settings: for IC50: HotSpot kinase assay, 1 μM ATP
T1 sequence (P42680 1-631): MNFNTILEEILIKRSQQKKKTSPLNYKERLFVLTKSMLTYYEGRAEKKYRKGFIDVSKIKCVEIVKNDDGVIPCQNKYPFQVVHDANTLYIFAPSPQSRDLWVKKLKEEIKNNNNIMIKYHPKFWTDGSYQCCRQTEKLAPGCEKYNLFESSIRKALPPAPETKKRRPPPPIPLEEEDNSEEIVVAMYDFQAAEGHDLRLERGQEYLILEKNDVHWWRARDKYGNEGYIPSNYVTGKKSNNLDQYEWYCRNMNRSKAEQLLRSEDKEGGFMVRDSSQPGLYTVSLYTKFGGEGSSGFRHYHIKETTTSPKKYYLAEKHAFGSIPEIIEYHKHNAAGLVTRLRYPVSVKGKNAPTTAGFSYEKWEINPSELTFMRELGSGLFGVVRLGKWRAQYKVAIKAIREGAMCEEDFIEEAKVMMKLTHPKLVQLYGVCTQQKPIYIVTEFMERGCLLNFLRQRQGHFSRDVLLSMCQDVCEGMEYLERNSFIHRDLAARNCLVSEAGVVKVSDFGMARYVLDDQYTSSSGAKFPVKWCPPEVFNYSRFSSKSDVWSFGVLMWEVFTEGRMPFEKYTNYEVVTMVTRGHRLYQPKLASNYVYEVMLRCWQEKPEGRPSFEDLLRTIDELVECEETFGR
Summary of the method: (§1)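 Purified kinase enzymes were incubated with an appropriate substrate and 33P-labelled ATP at 1 μM ATP. Inhibition was measured radiometrically from incorporation of the 33P label.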

panel of kinases = target: T2, panel of kinases (Homo sapiens, UniProt P51813); experiment: Inhibition of a panel of kinases (in vitro HotSpot kinase assay, 33P-ATP, 1 μM ATP), other kinases; settings: BMX wild-type, read-out: BMX-WT IC50
T2 sequence (P51813 1-675): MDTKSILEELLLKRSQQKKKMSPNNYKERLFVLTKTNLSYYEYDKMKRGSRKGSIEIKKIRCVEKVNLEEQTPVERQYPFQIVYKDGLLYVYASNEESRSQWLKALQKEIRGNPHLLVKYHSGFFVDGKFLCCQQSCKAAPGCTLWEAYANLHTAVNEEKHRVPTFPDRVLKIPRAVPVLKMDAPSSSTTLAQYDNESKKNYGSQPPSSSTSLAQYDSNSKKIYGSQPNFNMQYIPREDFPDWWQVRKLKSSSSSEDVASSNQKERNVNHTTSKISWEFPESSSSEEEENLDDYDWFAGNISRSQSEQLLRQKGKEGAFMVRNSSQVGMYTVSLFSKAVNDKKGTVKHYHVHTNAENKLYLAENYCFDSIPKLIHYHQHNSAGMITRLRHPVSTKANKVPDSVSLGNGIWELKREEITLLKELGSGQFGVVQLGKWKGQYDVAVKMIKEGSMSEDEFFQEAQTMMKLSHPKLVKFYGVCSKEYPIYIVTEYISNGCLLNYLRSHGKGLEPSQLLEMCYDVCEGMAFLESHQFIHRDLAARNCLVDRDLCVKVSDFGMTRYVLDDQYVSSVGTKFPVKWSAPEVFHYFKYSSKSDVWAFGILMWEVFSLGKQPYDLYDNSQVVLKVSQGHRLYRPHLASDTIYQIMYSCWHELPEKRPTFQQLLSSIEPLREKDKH
Summary of the method: as §1

Btk = target: T3, Btk (Homo sapiens, UniProt Q06187); experiment: Btk in vitro inhibitory activity (one of Method A TR-FRET, Method B electrophoretic mobility shift, Method C radiometric filter binding); settings: wild-type Btk; read-out: Btk-WT IC50
T3 construct: purified from insect cells as a full-length construct containing a N-terminal 6X-His tag; His6 (N); made in house; host or cells: insect cells (Method C)
Summary of the method: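 Method A: TR-FRET with 0.5 nM Btk at [ATP]=Km, EDTA-quenched, 665/615 nm ratio; Ki(app) converted to IC50. Method B: 1 nM full-length His6 human BTK, 1 μM FAM peptide, pH 7.5, mobility-shift product/sum ratio, 12-point 4-parameter fit. Method C: radiometric filter binding, 8 nM His-tagged BTK, 0.2 mg/mL poly-Glu-Tyr.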

T3 sequence (Q06187 whole entry): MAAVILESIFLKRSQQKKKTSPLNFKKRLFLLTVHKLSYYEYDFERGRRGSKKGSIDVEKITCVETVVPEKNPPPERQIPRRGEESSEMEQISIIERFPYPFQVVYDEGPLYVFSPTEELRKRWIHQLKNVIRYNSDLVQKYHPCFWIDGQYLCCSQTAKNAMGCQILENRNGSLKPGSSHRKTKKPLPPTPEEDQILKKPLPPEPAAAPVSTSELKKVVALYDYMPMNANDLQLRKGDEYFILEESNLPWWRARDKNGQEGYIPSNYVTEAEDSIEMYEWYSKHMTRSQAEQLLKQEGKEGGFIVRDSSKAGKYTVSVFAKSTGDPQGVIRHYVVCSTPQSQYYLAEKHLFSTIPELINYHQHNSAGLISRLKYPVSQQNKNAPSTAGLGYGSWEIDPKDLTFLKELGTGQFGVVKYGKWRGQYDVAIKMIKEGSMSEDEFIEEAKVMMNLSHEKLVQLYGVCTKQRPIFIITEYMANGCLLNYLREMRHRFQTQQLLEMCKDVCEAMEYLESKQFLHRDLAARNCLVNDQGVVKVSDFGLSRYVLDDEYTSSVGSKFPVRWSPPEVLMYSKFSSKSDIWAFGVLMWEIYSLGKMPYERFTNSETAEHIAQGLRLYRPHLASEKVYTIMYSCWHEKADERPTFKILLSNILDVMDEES

IC50 (TEC) [nM]	TEC/Btk (TEC; ratio of TEC IC50 to Btk IC50 (selectivity))	IC50 (panel of kinases) [nM]	IC50 (Btk) [nM]	SMILES
296	179	274	1.65	CC#CC(=O)N1CC[C@@H](Nc2n[nH]c3nccc(-c4ccc(CNC(=O)c5ccc(C(C)(C)C)cc5)c(F)c4)c23)C1 [Compound 7, N-{[4-(3-{[(3R)-1-(but-2-ynoyl)pyrrolidin-3-yl]amino}-1H-pyrazolo[3,4-b]pyridin-4-yl)-2-fluorophenyl]methyl}-4-tert-butylbenzamide]
8830		3030	26.4	C=CC(=O)N[C@H]1CCCC[C@@H]1Nc1n[nH]c2nccc(-c3ccc(CNC(=O)c4cc(C(C)(C)C)on4)c(F)c3)c12 [Example 318, 5-tert-butyl-N-({2-fluoro-4-[3-({(1S,2S)-2-[(prop-2-enoyl)amino]cyclohexyl}amino)-1H-pyrazolo[3,4-b]pyridin-4-yl]phenyl}methyl)-1,2-oxazole-3-carboxamide]
